Laboratory results published in patent publication US10669272B2, “Substituted naphthyridinone compounds useful as T cell activators” (BRISTOL-MYERS SQUIBB COMPANY, priority 2018, dated 2020).
Read-outs that look alike come from different tables or passages of the source.

Columns and labels:
[1] = molecular target: T1, human DGKζ (Homo sapiens, UniProt Q13574); test: DGKζ LIPGLO assay (extruded liposome substrate), in vitro DGK inhibition; type: biochemical; details: liposome (LIPGLO) assay; read-out: DGKz LIPGLO IC50
T1 construct: TVMV protease cleavage site (C); Hexa-His (C); made in house; host or cells: Sf9 insect cells (baculovirus, Bac-to-Bac)

[2] = molecular target: T2, human DGKα (Homo sapiens, UniProt P23743); test: DGKα LIPGLO assay (extruded liposome substrate), in vitro DGK inhibition; type: biochemical; details: liposome (LIPGLO) assay; read-out: DGKa LIPGLO IC50
T2 construct: TVMV protease cleavage site (C); Hexa-His (C); made in house; host or cells: Sf9 insect cells (baculovirus, Bac-to-Bac)

[3] = test system: Human venous whole blood; test: Human whole blood IFN-γ assay; type: cell-based; details: human whole blood, normalized to 3 μM reference compound with anti-CD3 plus anti-CD28 as 100% activation, read-out: INFg Whole Blood Normalized Agonist EC50;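 further: blood from healthy donors exposed to compound for 1 h before stimulation with anti-CD3 and anti-CD28 at 1 µg/mL each, IFN-γ quantified in supernatant by AlphaLISA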

T2 sequence (P23743 with tags, fused parts or gaps): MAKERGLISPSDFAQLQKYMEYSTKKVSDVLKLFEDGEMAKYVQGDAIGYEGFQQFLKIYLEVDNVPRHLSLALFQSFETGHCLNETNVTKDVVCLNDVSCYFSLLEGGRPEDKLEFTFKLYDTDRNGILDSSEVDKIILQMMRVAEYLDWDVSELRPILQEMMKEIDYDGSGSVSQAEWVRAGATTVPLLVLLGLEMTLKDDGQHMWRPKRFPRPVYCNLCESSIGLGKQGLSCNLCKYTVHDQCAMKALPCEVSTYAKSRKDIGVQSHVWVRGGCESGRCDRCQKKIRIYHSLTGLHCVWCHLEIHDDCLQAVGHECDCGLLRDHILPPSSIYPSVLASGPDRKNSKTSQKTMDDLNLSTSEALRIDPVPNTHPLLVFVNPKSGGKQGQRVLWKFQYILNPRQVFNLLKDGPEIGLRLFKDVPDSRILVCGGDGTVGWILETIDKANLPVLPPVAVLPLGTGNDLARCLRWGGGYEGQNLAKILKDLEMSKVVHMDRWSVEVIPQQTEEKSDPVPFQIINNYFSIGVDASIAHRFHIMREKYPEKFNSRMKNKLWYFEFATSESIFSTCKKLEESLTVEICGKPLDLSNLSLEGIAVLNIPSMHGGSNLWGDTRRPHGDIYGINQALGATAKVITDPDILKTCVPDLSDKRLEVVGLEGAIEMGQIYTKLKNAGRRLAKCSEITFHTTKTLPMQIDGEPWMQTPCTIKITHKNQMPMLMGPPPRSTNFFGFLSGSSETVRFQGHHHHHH
T1 sequence (Q13574 with tags, fused parts or gaps isoform Q13574-4): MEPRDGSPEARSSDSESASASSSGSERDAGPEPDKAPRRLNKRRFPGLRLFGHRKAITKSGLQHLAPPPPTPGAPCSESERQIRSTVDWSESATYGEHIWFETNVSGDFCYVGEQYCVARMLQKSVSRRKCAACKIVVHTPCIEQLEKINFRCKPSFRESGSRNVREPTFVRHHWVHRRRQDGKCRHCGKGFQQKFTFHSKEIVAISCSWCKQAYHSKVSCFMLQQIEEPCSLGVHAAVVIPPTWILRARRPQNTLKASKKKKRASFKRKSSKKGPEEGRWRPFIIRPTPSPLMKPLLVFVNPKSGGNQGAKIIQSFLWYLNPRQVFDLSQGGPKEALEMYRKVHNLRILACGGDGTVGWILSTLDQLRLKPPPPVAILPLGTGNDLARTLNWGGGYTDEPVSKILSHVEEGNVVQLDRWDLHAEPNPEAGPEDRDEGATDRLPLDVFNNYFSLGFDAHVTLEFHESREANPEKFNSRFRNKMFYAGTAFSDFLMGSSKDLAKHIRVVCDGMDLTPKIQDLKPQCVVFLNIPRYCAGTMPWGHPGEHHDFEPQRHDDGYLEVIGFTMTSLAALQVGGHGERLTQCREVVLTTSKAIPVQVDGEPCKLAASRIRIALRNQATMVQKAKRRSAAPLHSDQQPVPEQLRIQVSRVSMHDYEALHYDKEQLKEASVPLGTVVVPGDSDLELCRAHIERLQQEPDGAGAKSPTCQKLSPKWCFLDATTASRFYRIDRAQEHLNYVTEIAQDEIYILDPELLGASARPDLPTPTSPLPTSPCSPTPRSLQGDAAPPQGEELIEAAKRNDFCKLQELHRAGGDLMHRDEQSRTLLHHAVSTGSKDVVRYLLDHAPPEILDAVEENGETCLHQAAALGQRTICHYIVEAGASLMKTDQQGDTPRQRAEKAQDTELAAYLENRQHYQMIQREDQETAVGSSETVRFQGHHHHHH

SMILES	IC50 [1]	IC50 [2]	EC50 [3]	EC50 ([3]; Homo sapiens, 24 h)
C[C@@H]1CN(c2cc(=O)n(C)c3ccc(C#N)nc23)[C@@H](C)CN1C(c1ccc(F)cc1)c1ccnc(C(C)(C)C)n1 (single isomer, unassigned) [Example 408]	800 nM	7500 nM		800 nM
C[C@@H]1CN(c2cc(=O)n(C)c3ccc(C#N)nc23)[C@@H](C)CN1C(c1ccc(F)cc1)c1ccnc(C(C)(C)C)n1 (single isomer, unassigned) [Example 409]	53 nM	5300 nM	430 nM	
C[C@@H]1CN(c2cc(=O)n(C)c3ccc(C#N)nc23)[C@@H](C)CN1C(c1ccc(F)cc1)c1cncc(F)c1 (single isomer, unassigned) [Example 415]	19000 nM	35000 nM		16000 nM
CC[C@@H]1CN(c2cc(=O)n(C)c3ccc(C#N)nc23)[C@@H](C)CN1C(c1ccc(F)cc1)c1ccnc(C)n1 (single isomer, unassigned) [Example 418]	130 nM	1500 nM	280 nM	
CCC(c1ccc(OC(F)(F)F)cc1F)N1C[C@H](C)N(c2cc(=O)n(C)c3ccc(C#N)nc23)C[C@H]1CC (single isomer, unassigned) [Example 420]	250 nM	310 nM	150 nM	
CCC(c1ccc(OC(F)(F)F)cc1F)N1C[C@H](C)N(c2cc(=O)n(C)c3ccc(C#N)nc23)C[C@H]1CC (single isomer, unassigned) [Example 421]	1800 nM	7800 nM	2600 nM	
CC[C@@H]1CN(c2cc(=O)n(C)c3ccc(C#N)nc23)[C@@H](C)CN1C(c1ccc(Cl)cc1)c1ccccn1 (single isomer, unassigned) [Example 422]	89 nM	120 nM	220 nM	
CC[C@@H]1CN(c2cc(=O)n(C)c3ccc(C#N)nc23)[C@@H](C)CN1C(c1ccc(Cl)cc1)c1ccccn1 (single isomer, unassigned) [Example 423]	170 nM	27 nM	740 nM	
[2H]C(C)(c1ccc(F)cc1)N1C[C@H](C)N(c2c(F)c(=O)n(C)c3ccc(C#N)nc23)C[C@H]1C (single isomer, unassigned) [Example 424]	37000 nM	290 nM	16000 nM	
Cc1c(F)ccc(C(C)N2C[C@H](C)N(c3cc(=O)n(C)c4ccc(C#N)nc34)C[C@H]2C)c1Cl (single isomer, unassigned) [Example 433]	240 nM	79000 nM		1300 nM
CC(c1ccc(OC(F)(F)F)cc1)N1C[C@H](C)N(c2cc(=O)n(C)c3ccc(C#N)nc23)C[C@H]1C (single isomer, unassigned) [Example 435]	4900 nM	1100 nM	2500 nM	
CC(c1ccc(OC(F)(F)F)cc1)N1C[C@H](C)N(c2cc(=O)n(C)c3ccc(C#N)nc23)C[C@H]1C (single isomer, unassigned) [Example 436]	810 nM	65 nM	440 nM	
CCC(c1ccc(OC(F)(F)F)cc1F)N1C[C@H](C)N(c2cc(=O)n(C)c3ccc(C#N)nc23)C[C@H]1C (single isomer, unassigned) [Example 440]	320 nM	81 nM	1000 nM	
CCC(c1ccc(OC(F)(F)F)cc1F)N1C[C@H](C)N(c2cc(=O)n(C)c3ccc(C#N)nc23)C[C@H]1C (single isomer, unassigned) [Example 441]	2400 nM	1500 nM	7900 nM	
CC(c1ccc(OC(F)(F)F)cc1F)N1C[C@H](C)N(c2cc(=O)n(C)c3ccc(C#N)nc23)C[C@H]1C (single isomer, unassigned) [Example 442]	1800 nM	1400 nM	7500 nM	
C[C@@H]1CN(c2cc(=O)n(C)c3ccc(C#N)nc23)[C@@H](C)CN1C(c1ccc(Cl)cc1)c1ccc(F)c2c1OC(C)(C)C2 (single isomer, unassigned) [Example 458]	110 nM	1100 nM		510 nM
C[C@@H]1CN(c2cc(=O)n(C)c3ccc(C#N)nc23)[C@@H](C)CN1C(c1ccc(OC(F)(F)F)cc1)c1ccc(F)cn1 (single isomer, unassigned) [Example 466]	1800 nM	190 nM	5500 nM	
C[C@@H]1CN(c2cc(=O)n(C)c3ccc(C#N)nc23)[C@@H](C)CN1C(c1ccc(F)cc1)c1cc(F)ccn1 (single isomer, unassigned) [Example 473]	4000 nM	1700 nM	880 nM	
C[C@@H]1CN(c2cc(=O)n(C)c3ccc(C#N)nc23)[C@@H](C)CN1C(c1ccc(F)cc1)c1cc(F)ccn1 (single isomer, unassigned) [Example 474]	1200 nM	260 nM	260 nM	
C[C@@H]1CN(c2cc(=O)n(C)c3ccc(C#N)nc23)[C@@H](C)CN1C(c1ccc(OC(F)(F)F)cc1F)C1CC1 (single isomer, unassigned) [Example 480]	1800 nM	1600 nM		4900 nM

Further lines, with some results ahead:

IC50 [1]	IC50 [2]	SMILES	EC50 [3]	EC50 ([3]; Homo sapiens, 24 h)
4500 nM	7800 nM	Cc1nccc(C(c2ccc(F)cc2)N2C[C@H](C)N(c3cc(=O)n(C)c4ccc(C#N)nc34)C[C@H]2C)n1 (single isomer, unassigned) [Example 401]	930 nM	
2800 nM	2400 nM	Cc1ncc(C(c2ccc(F)cc2)N2C[C@H](C)N(c3cc(=O)n(C)c4ccc(C#N)nc34)C[C@H]2C)cn1 (single isomer, unassigned) [Example 406]		11000 nM
14000 nM	21000 nM	Cc1ccc(C(c2cncc(F)c2)N2C[C@H](C)N(c3cc(=O)n(C)c4ccc(C#N)nc34)C[C@H]2C)cc1 (single isomer, unassigned) [Example 416]	5200 nM	
420 nM	40000 nM	C[C@@H]1CN(c2cc(=O)n(C)c3ccc(C#N)nc23)[C@@H](C)CN1C(c1cccc(F)c1)c1cccc2c1OCCCO2 (single isomer, unassigned) [Example 445]		2600 nM
660 nM	660 nM	Cc1ccnc(C(c2ccc(Cl)cc2)N2C[C@H](C)N(c3cc(=O)n(C)c4ccc(C#N)nc34)C[C@H]2C)c1 (single isomer, unassigned) [Example 448]	1100 nM	
530 nM	24000 nM	Cc1ccc(C(c2cccc3c2OCCCO3)N2C[C@H](C)N(c3cc(=O)n(C)c4ccc(C#N)nc34)C[C@H]2C)nc1 (single isomer, unassigned) [Example 451]	7600 nM	
540 nM	230 nM	Cc1ccc(C(c2ccc(C)cn2)N2C[C@H](C)N(c3cc(=O)n(C)c4ccc(C#N)nc34)C[C@H]2C)cc1 (single isomer, unassigned) [Example 454]		470 nM
1000 nM	230 nM	Cc1ccnc(C(c2ccc(F)cc2)N2C[C@H](C)N(c3cc(=O)n(C)c4ccc(C#N)nc34)C[C@H]2C)c1 (single isomer, unassigned) [Example 456]	1100 nM	
1100 nM	140 nM	Cc1ccc(C(c2ccc(C)cn2)N2C[C@H](C)N(c3cc(=O)n(C)c4ccc(C#N)nc34)C[C@H]2C)cc1 (single isomer, unassigned) [Example 457]	590 nM	
3600 nM	1400 nM	Cc1ccc(C(c2cc(C)ccn2)N2C[C@H](C)N(c3cc(=O)n(C)c4ccc(C#N)nc34)C[C@H]2C)cc1 (single isomer, unassigned) [Example 461]	2100 nM	
4600 nM	330 nM	C[C@@H]1CN(c2cc(=O)n(C)c3ccc(C#N)nc23)[C@@H](C)CN1C(c1ccc(C#N)cc1)c1ccc(F)cn1 (single isomer, unassigned) [Example 463]	3700 nM	
980 nM	200 nM	C[C@@H]1CN(c2cc(=O)n(C)c3ccc(C#N)nc23)[C@@H](C)CN1C(c1ccc(F)cn1)c1cccc2c1OC(C)(C)C2 (single isomer, unassigned) [Example 465]		20000 nM
450 nM	980 nM	C[C@@H]1CN(c2cc(=O)n(C)c3ccc(C#N)nc23)[C@@H](C)CN1C(c1ccc(F)cn1)c1cccc2c1OC(C)(C)C2 (single isomer, unassigned) [Example 467]	20000 nM	
1600 nM	140 nM	C[C@@H]1CN(c2cc(=O)n(C)c3ccc(C#N)nc23)[C@@H](C)CN1C(c1ccc(OC(F)(F)F)cc1)c1ccc(F)cn1 (single isomer, unassigned) [Example 468]	1300 nM	
510 nM	1700 nM	Cc1ccc(C(c2cccc3c2OCCCO3)N2C[C@H](C)N(c3cc(=O)n(C)c4ccc(C#N)nc34)C[C@H]2C)nc1 (single isomer, unassigned) [Example 469]	3200 nM	
2000 nM	13000 nM	Cc1cccc(C(c2cccc(F)c2)N2C[C@H](C)N(c3cc(=O)n(C)c4ccc(C#N)nc34)C[C@H]2C)n1 (single isomer, unassigned) [Example 470]		370 nM
2400 nM	2100 nM	Cc1ccc(C(c2cccc(F)n2)N2C[C@H](C)N(c3cc(=O)n(C)c4ccc(C#N)nc34)C[C@H]2C)cc1 (single isomer, unassigned) [Example 478]		3800 nM
1900 nM	910 nM	Cc1ccc(C(c2cccc(F)n2)N2C[C@H](C)N(c3cc(=O)n(C)c4ccc(C#N)nc34)C[C@H]2C)cc1 (single isomer, unassigned) [Example 479]	2100 nM	
